From patent US20120252865A1, “CARBAMATE DERIVATIVES IN PARTICULAR FOR THE TREATMENT OF NEUROLOGICAL DISORDERS” (SIGMA-TAU INDUSTRIE FARMACEUTICHE RIUNITE S.P.A., priority 2009, published 2012)

Key:
[1] = molecular target: T1, fatty acid amide hydrolase (FAAH, EC 3.5.1.4) (Mus musculus, UniProt O08914); assay: FAAH assay: release of [1-14C]AA from [1-14C]AnNH by RP-HPLC; assay type: biochemical; conditions: mouse brain homogenate; for IC50: 37° C., 15 min, pH 9.0; for Ki: Lineweaver-Burk analysis
T1 construct: The reaction was initiated by the addition of mouse brain homogenate (40 μg); from tissue; host or cells: mouse brain homogenate
T1 sequence (O08914 1-579): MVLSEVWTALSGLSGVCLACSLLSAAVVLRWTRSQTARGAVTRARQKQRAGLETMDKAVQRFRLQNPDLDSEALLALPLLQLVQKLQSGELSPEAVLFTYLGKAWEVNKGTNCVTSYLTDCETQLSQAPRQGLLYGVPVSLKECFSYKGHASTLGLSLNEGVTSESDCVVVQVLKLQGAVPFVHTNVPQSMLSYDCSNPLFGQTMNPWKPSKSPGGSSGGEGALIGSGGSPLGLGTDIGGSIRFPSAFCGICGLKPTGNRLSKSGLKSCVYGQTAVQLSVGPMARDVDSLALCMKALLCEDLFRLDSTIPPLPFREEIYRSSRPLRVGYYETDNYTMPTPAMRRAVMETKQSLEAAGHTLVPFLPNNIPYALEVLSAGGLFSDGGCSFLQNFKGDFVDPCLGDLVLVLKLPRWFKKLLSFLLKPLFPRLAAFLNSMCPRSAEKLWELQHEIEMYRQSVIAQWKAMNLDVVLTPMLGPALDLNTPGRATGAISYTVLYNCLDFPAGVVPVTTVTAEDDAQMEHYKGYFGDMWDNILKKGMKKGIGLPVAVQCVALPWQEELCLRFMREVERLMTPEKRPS
Description: The compounds of the present invention show affinity and inhibit the enzymatic activity of the fatty acid amide hydrolase enzyme.
The assay of FAAH (EC 3.5.1.4) was performed by measuring the release of [1-^14C]AA from [1-^14C]AnNH (52 mCi/mmol), using RP-HPLC. Also [^3H]AnNH (205 Ci/mmol) could be used as substrate, measuring the release of [^3H]AA under the same experimental conditions described below for [1-^14C]AnNH. Compounds of the invention, at various concentrations, were added in 200 μl hydrolase assay buffer (50 mM Tris-HCl, pH 9.0), in 2-ml Eppendorf tubes, 20 min before adding [1-^14C]AnNH2, up to a concentration of 10 μM. The reaction was initiated by the addition of mouse brain homogenate (40 μg), and after incubation at 37° C. for 15 min it was stopped by the addition of 800 μl ice-cold methanol/chloroform (2:1, v/v) with vortexing. This mixture was allowed to stand at room temperature for 30 min, then 240 μl chloroform and 240 μl water were added with vortexing. After 10 min at room temperature, the mixture was centrifuged at 3000 g for 5 min, the upper aqueous layer was removed by suction and the lower organic phase was dried by spinning the samples in a DNA MINI speedvac (Heto-Holten, Denmark), at 100 mbar and 30° C. for 30 min. The residue was dissolved into 50 μl methanol and subjected to RP-HPLC analysis for AA quantitation, as detailed below. FAAH specific activity was expressed as pmol AA released/min/mg protein. Kinetic studies were performed by Lineweaver-Burk analysis, using [1-^14C]AnNH, [1-^14C]ODNHEtOH, or [1-^14C]ODNH2 in the concentration range 0-12 μM. Fitting of the experimental points by a linear regression programme (Kaleidagraph 3.0) yielded straight lines with r values >0.97.

CB1R = CB1R (Homo sapiens, UniProt P21554); assay: Selectivity profile: CB1R; assay type: binding; conditions: tested at a multiple of the FAAH IC50
Chain of CB1R (P21554 whole entry): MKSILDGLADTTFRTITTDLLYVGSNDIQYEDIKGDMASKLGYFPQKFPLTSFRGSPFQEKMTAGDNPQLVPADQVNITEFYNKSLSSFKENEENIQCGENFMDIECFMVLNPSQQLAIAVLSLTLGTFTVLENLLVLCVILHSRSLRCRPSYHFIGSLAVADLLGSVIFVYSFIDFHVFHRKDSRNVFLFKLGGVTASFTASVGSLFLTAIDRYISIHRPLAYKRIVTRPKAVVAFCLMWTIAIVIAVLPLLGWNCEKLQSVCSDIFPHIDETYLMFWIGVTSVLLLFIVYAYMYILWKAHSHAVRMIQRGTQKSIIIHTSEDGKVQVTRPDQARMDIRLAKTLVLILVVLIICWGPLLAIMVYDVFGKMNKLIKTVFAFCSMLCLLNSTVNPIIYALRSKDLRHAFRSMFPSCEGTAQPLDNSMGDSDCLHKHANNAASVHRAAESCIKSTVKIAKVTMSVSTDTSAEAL
Description: (§1) The compounds of the present invention were also evaluated with regard to their selectivity profile against the following targets: AMT, NAPE-PLD, MAGL, DAGL, CB1/CB2 and TRPV1 according to the procedures described in Maccarrone M., et al., J. Biol. Chem., 2000, 275, 13484, Fezza F., et al., Anal Biochem., 2005, 339, 113, Dinh T. P., et al., 2002, Proc. Natl. Acad. Sci. 99, 10819, Bisogno T., et al., 2003, J. Cell Biol., 163, 463, Maccarrone M., et al., J. Biol. Chem., 2000, 275, 31938, Ross R. A., et al., Br. J. Pharmacol., 2001, 132, 631.

CB2R = CB2R (Homo sapiens, UniProt P34972); assay: Selectivity profile: CB2R; assay type: binding; conditions: tested at a multiple of the FAAH IC50
Chain of CB2R (P34972 whole entry): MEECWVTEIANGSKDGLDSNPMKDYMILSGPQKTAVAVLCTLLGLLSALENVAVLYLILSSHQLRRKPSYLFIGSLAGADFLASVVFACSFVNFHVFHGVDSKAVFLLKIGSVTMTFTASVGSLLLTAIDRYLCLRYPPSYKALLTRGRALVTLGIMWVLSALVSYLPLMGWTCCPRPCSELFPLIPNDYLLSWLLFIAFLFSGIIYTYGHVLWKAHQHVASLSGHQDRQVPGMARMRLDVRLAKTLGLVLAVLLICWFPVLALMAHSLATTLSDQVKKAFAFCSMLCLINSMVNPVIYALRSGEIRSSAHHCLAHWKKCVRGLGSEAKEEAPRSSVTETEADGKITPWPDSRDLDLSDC
Description: as §1

TRPV1 = assay: Selectivity profile: TRPV1; assay type: binding; conditions: tested at a multiple of the FAAH IC50
Description: as §1

NAPE-PLD = NAPE-PLD (Homo sapiens, UniProt Q6IQ20); assay: Selectivity profile: NAPE-PLD; assay type: biochemical; conditions: tested at a multiple of the FAAH IC50
Chain of NAPE-PLD (Q6IQ20 whole entry, species assumed): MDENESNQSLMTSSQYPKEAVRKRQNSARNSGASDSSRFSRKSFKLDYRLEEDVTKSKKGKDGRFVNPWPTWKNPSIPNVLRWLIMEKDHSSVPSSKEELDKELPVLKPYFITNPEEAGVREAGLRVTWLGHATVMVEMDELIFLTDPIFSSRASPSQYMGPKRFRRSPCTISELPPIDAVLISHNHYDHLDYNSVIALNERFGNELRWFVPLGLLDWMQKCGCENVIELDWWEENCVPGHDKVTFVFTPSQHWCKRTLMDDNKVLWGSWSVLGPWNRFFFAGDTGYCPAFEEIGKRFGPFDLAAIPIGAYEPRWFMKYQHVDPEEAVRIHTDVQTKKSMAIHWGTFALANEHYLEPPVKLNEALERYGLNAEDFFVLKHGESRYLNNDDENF
Description: as §1

AMT = assay: Selectivity profile: AMT; assay type: cell-based
Description: as §1

DAGL = assay: Selectivity profile: DAGL; assay type: biochemical; conditions: tested at a multiple of the FAAH IC50
Description: as §1

MAGL = molecular target: T2, MAGL (Homo sapiens, UniProt Q99685); assay: Selectivity profile: MAGL; assay type: biochemical; conditions: tested at a multiple of the FAAH IC50
T2 sequence (Q99685 1-303): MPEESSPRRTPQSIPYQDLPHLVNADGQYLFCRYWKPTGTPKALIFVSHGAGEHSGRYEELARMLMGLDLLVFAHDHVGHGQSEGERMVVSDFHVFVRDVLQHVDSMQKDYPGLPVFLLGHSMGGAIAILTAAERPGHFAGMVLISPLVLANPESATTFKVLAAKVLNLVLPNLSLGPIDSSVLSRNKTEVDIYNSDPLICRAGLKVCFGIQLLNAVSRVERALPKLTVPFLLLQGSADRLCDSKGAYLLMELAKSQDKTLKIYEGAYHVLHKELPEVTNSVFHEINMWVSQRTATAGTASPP
Description: as §1

mechanical hyperalgesia = assay: Paw withdrawal test for mechanical hyperalgesia (Randall-Selitto analgesimeter); assay type: in vivo; conditions: rat; for analgesic activity (nociceptive threshold, paw withdrawal): acute oral treatment, 30 mg/kg (FIG. 1)
Description: The paw withdrawal test was used to assess mechanical hyperalgesia. The nociceptive threshold, expressed in grams, was measured by applying increasing pressure to the left and right hind paws using a Randall-Selitto analgesimeter (Ugo Basile, Varese, Italy). The parameter used to quantify the nociceptive threshold was defined as the pressure (grams) at which the rat withdrew its paw. Rats were habituated to the testing procedures and handling by the investigator in the week prior to the experiment.
Dose response experiments at 10, 30 and 100 mg/kg were also conducted with ST4068, ST3911 and ST3913.

[2] = 100 mg/kg, compared with 30 mg/kg (FIGS. 2, 3 and 4)

CCCCNC(=O)Oc1cccc(-n2ccc(C(=O)OCCCCCCc3ccccc3)c2)c1 [Example 12, 1-(3-butylcarbamoyloxy-phenyl)-1H-pyrrole-3-carboxylic acid 6-phenyl-hexyl ester]
IC50 [1]: 100 to 500 nM

CCCCNC(=O)Oc1cccc(-c2oc(C)cc2C(=O)OCC)c1 [Example 10, 2-(3-butylcarbamoyloxy-phenyl)-5-methyl-furan-3-carboxylic acid ethyl ester]
IC50 [1]: 100 to 500 nM

Cc1cc(C(N)=O)c(-c2cccc(OC(=O)NC3CCCCC3)c2)o1 [Example 13, cyclohexyl-carbamic acid 3-(3-carbamoyl-5-methyl-furan-2-yl)-phenyl ester]
IC50 [1]: 100 to 500 nM

CCCCNC(=O)Oc1cccc(-n2ccc(C(N)=O)c2)c1 [Example 1, butyl-carbamic acid 3-(3-carbamoyl-pyrrol-1-yl)-phenyl ester]
IC50 [1]: 100 to 500 nM
Ki [1]: 10 to 100 nM

Cc1oc(-c2cccc(OC(=O)NCCCCCCc3ccccc3)c2)cc1C(N)=O [Example 9, (6-phenyl-hexyl)-carbamic acid 3-(4-carbamoyl-5-methyl-furan-2-yl)-phenyl ester]
IC50 [1]: 10 to 100 nM
Ki [1]: < 10 nM
inhibitory activity on CB1R (CB1R): −−−− (1000 times [IC50] with an inhibitory activity on the target <60%)
inhibitory activity on CB2R (CB2R): −−−− (1000 times [IC50] with an inhibitory activity on the target <60%)
inhibitory activity on TRPV1 (TRPV1): −−−− (1000 times [IC50] with an inhibitory activity on the target <60%)
inhibitory activity on NAPE-PLD (NAPE-PLD): −−−− (1000 times [IC50] with an inhibitory activity on the target <60%)
AMT, % @ 1 μM (AMT): 80% @ 1 μM
inhibitory activity on DAGL (DAGL): −−−− (1000 times [IC50] with an inhibitory activity on the target <60%)
inhibitory activity on MAGL (MAGL): −−−− (1000 times [IC50] with an inhibitory activity on the target <60%)

Cc1cc(C(N)=O)c(-c2cccc(OC(=O)NCCCCCCc3ccccc3)c2)s1 [Example 7, (6-phenyl-hexyl)-carbamic acid 3-(3-carbamoyl-5-methyl-thiophen-2-yl)-phenyl ester]
IC50 [1]: < 10 nM
Ki [1]: < 10 nM
inhibitory activity on CB1R (CB1R): −−−− (1000 times [IC50] with an inhibitory activity on the target <60%)
inhibitory activity on CB2R (CB2R): −−−− (1000 times [IC50] with an inhibitory activity on the target <60%)
inhibitory activity on NAPE-PLD (NAPE-PLD): −−−− (1000 times [IC50] with an inhibitory activity on the target <60%)
AMT, % @ 1 μM (AMT): 60% @ 1 μM
inhibitory activity on MAGL (MAGL): −−−− (1000 times [IC50] with an inhibitory activity on the target <60%)

Cc1oc(-c2cccc(OC(=O)NC3CCCCC3)c2)cc1C(N)=O [Example 8, cyclohexyl-carbamic acid 3-(4-carbamoyl-5-methyl-furan-2-yl)-phenyl ester]
IC50 [1]: 100 to 500 nM

Cc1cc(C(N)=O)c(-c2cccc(OC(=O)NCCCCCCc3ccccc3)c2)o1 [Example 6, (6-phenyl-hexyl)-carbamic acid 3-(3-carbamoyl-5-methyl-furan-2-yl)-phenyl ester]
IC50 [1]: < 10 nM
Ki [1]: < 10 nM
analgesic activity, dose response (mechanical hyperalgesia; 30 mg/kg (FIGS. 2, 3 and 4)): did exert analgesic activity
analgesic activity, dose response (mechanical hyperalgesia; [2]): higher effect
analgesic activity (nociceptive threshold, paw withdrawal) (mechanical hyperalgesia): significant analgesic activity

NC(=O)c1ccn(-c2cccc(OC(=O)NC3CCCCC3)c2)c1 [Example 3, cyclohexyl-carbamic acid 3-(3-carbamoyl-pyrrol-1-yl)-phenyl ester]
IC50 [1]: 100 to 500 nM
Ki [1]: 10 to 100 nM

CCCCNC(=O)Oc1cccc(-c2oc(C)cc2C(N)=O)c1 [Example 5, butyl-carbamic acid 3-(3-carbamoyl-5-methyl-furan-2-yl)-phenyl ester]
IC50 [1]: 500 to 5000 nM
Ki [1]: 100 to 500 nM

Cc1cc(C(N)=O)c(-c2cccc(OC(=O)NC3CCCCC3)c2)s1 [Example 14, cyclohexyl-carbamic acid 3-(3-carbamoyl-5-methyl-thiophen-2-yl)-phenylester]
IC50 [1]: 100 to 500 nM

C#CCCCCCCCCCNC(=O)Oc1cccc(-n2ccc(C(N)=O)c2)c1 [Example 2, undec-10-ynyl-carbamic acid 3-(3-carbamoyl-pyrrol-1-yl)-phenyl ester]
IC50 [1]: < 10 nM
Ki [1]: < 10 nM
analgesic activity, dose response (mechanical hyperalgesia; 30 mg/kg (FIGS. 2, 3 and 4)): did exert analgesic activity
analgesic activity, dose response (mechanical hyperalgesia; [2]): higher effect
analgesic activity (nociceptive threshold, paw withdrawal) (mechanical hyperalgesia): significant analgesic activity

NC(=O)c1ccn(-c2cccc(OC(=O)NCCCCCCc3ccccc3)c2)c1 [Example 4, (6-phenyl-hexyl)-carbamic acid 3-(3-carbamoyl-pyrrol-1-yl)-phenyl ester]
IC50 [1]: < 10 nM
Ki [1]: < 10 nM
inhibitory activity on CB1R (CB1R): −−−− (1000 times [IC50] with an inhibitory activity on the target <60%)
inhibitory activity on CB2R (CB2R): −−−− (1000 times [IC50] with an inhibitory activity on the target <60%)
inhibitory activity on TRPV1 (TRPV1): −−−− (1000 times [IC50] with an inhibitory activity on the target <60%)
inhibitory activity on NAPE-PLD (NAPE-PLD): −−−− (1000 times [IC50] with an inhibitory activity on the target <60%)
AMT, % @ 1 μM (AMT): 80% @ 1 μM
inhibitory activity on DAGL (DAGL): −−−− (1000 times [IC50] with an inhibitory activity on the target <60%)
inhibitory activity on MAGL (MAGL): −−−− (1000 times [IC50] with an inhibitory activity on the target <60%)
analgesic activity, dose response (mechanical hyperalgesia; 30 mg/kg (FIGS. 2, 3 and 4)): did exert analgesic activity
analgesic activity, dose response (mechanical hyperalgesia; [2]): higher effect
analgesic activity (nociceptive threshold, paw withdrawal) (mechanical hyperalgesia): significant analgesic activity

C#CCCCCCCCCCOC(=O)c1ccn(-c2cccc(OC(=O)NCCCC)c2)c1 [Example 11, 1-(3-butylcarbamoyloxy-phenyl)-1H-pyrrole-3-carboxylic acid undec-10-ynyl ester]
IC50 [1]: 100 to 500 nM
